In patent US20130210860A1, “PROPHYLACTIC AND/OR THERAPEUTIC AGENT AGAINST LYMPHEDEMA” (KOWA CO., LTD., priority 2010, published 2013):

Columns and labels:
[1] = system: mouse model of abdominal wall lymphedema; assay: Mouse model of abdominal wall lymphedema, thickness of the skin section (wild-type mouse); assay type: in vivo, C57BL/6J mouse; settings: for lymphedema (thickness of the skin): C57BL/6J mice, combined results of Experiments 2 and 3, pitavastatin 1 mg/kg/day, atorvastatin 2.5 or 1 mg/kg/day, pravastatin 1 mg/kg/day oral, after seven days, FIG. 2
Protocol: (§1) A male C57BL/6J mouse and a male eNOS-deficient mouse having a genetic background of C57BL/6J, both of which are eight weeks old at the time of surgery, each receives an intraperitoneal injection of Nembutal at 60 mg/kg, and further receives a subcutaneous injection of 1% Evans blue for identification of lymph nodes and lymphatic vessels in the dorsum of the right foot, the back of the hand, and the buttocks in an amount of 0.05 mL at each site. The abdominal hair was removed and the abdominal skin is incised in an open-door fashion so as to identify the inguinal lymph nodes, axillary lymph nodes, and lymphatic vessels connecting these lymph nodes in the right abdominal wall. The lymphatic vessels are ligated at two to three sites near the axillary lymph nodes, followed by excision of the axillary lymph nodes. Subsequently, the skin is sutured, whereby the surgery is completed. On the seventh day after the surgery, the abdominal skin is once again incised in an open-door fashion to collect the abdominal wall tissues. The mice were orally administered with the statins dissolved in distilled water (250 μl) from three days before to seven days after the surgery once a day. […] Methanol-fixed paraffin-embedded tissue sections were stained with hematoxylin, and the thickness of the skin section prepared from the upper inguinal area, which is the lowermost part of a mouse, was measured. Anatomically, interstitial fluid tends to be accumulated in this area.

[2] = system: mouse model of abdominal wall lymphedema; assay: Mouse model of abdominal wall lymphedema, thickness of the skin section (eNOS-deficient mouse); assay type: in vivo, eNOS-deficient mouse having a genetic background of C57BL/6J; settings: Experiment 1, 10 mg/kg/day oral, once a day from three days before to seven days after the surgery, FIG. 1
Protocol: as §1, with “Anatomically, interstitial fluid tends to be accumulated in this area.” left out

[3] = system: mouse model of abdominal wall lymphedema; assay: Visual examination by lymphangiography (Evans blue): leakage of lymph fluid and lymphatic flow in the lymphedema model; assay type: in vivo, C57BL/6J mouse; settings: C57BL/6J mice; administration method of Experiment 3 (1 mg/kg/day oral); lymphangiography on the seventh and fourteenth days after the surgery; FIG. 3
Protocol: A male C57BL/6J mouse and a male eNOS-deficient mouse having a genetic background of C57BL/6J, both of which are eight weeks old at the time of surgery, each receives an intraperitoneal injection of Nembutal at 60 mg/kg, and further receives a subcutaneous injection of 1% Evans blue for identification of lymph nodes and lymphatic vessels in the dorsum of the right foot, the back of the hand, and the buttocks in an amount of 0.05 mL at each site. The abdominal hair was removed and the abdominal skin is incised in an open-door fashion so as to identify the inguinal lymph nodes, axillary lymph nodes, and lymphatic vessels connecting these lymph nodes in the right abdominal wall. The lymphatic vessels are ligated at two to three sites near the axillary lymph nodes, followed by excision of the axillary lymph nodes. Subsequently, the skin is sutured, whereby the surgery is completed. […]
On the seventh and fourteenth days after the surgery, 0.05 μl of 1% Evans blue was locally injected into the inguinal lymph nodes for lymphangiography, whereby leakage of lymph fluid and lymphatic flow were evaluated.
Each statin was administered by the administration method employed in Experiment 3) and the leakage of lymph fluid and lymphatic flow were evaluated by lymphangiography of the lymph node tissues.

| Compound | lymphedema (thickness of the skin) [1] | lymphedema (thickness of the skin section prepared from the upper inguinal area) ([1]; wild-type mouse, Experiment 1, 10 mg/kg/day oral, once a day from three days before to seven days after the surgery, FIG. 1) | lymphedema (thickness of the skin section prepared from the upper inguinal area) [2] | leakage of lymph fluid [3] |
| --- | --- | --- | --- | --- |
| O=C(O)C[C@H](O)C[C@H](O)/C=C/c1c(C2CC2)nc2ccccc2c1-c1ccc(F)cc1 [pitavastatin, (3R,5S,6E)-7-[2-cyclopropyl-4-(4-fluorophenyl)-3-quinolyl]-3,5-dihydroxy-6-heptenoic acid] | markedly inhibit | markedly inhibited | markedly inhibited | markedly inhibited |
| CC[C@H](C)C(=O)O[C@H]1C[C@H](O)C=C2C=C[C@H](C)[C@H](CC[C@@H](O)C[C@@H](O)CC(=O)O)[C@H]21 [pravastatin, (+)-(3R,5R)-3,5-dihydroxy-7-[(1S,2S,6S,8S,8aR)-6-hydroxy-2-methyl-8-[(S)-2-methylbutyryloxy]-1,2,6,7,8,8a-hexahydro-1-naphthyl]heptanoic acid] | markedly inhibit |  |  |  |
